{"source": "patent US4282232A", "about": "“Nitroimidazole radiosensitizers for hypoxic tumor cells and compositions thereof” (priority 1979, dated 1981)", "key": {"[1]": {"experiment": "In vitro cytotoxicity (2 hour exposure)", "assay_type": "cell-based", "conditions": "chinese hamster, v-79-753 b cells; for MNTC at 2 h: read-out: In-vitro Cytotoxicity in cells: Nontoxic up to (concentration); for cytotoxicity at 2 h, 1000 µM: at 1mM", "method": "(§1) Asynchronous monolayer cultures of Chinese hamster cells line V-79-753 B were employed in all the experiments. The monolayers were derived from exponentially-growing cultures. Methods of culturing and handling have been reported earlier by Cooke et al, Rad. Res. 65, 152 (1976). The plated cultures were rendered hypoxic in sealed dural containers capable of holding four petri dishes, by purging with nitrogen (oxygen-free grade) for one hour. Irradiation was carried out by using a Cobalt-60 source at a dose rate of approximately 310 rad/min according to the procedure described previously be Cooke et al, supra. A dose of 1395 rad was given to hypoxic cells in glass petri dishes in the presence of a given drug concentration (2000 cells/dish). Cell survival was estimated from unirradiated hypoxic cells exposed to the same drug concentration. Cultures were incubated for 6 days at 37° C. in an atmosphere of 5% CO2; the resulting colonies were fixed in absolute ethanol, stained with methylene blue and counted.\nTo determine toxicity in vitro, glass petri dishes containing approximately 200 cells/dish were exposed to a range of concentrations of each drug for 2 hours at room temperature (20° C.) in air or in hypoxia. Drug concentrations […] were employed."}, "mice of strain BDF1 [2]": {"system": "mice of strain BDF1", "experiment": "in vivo", "conditions": "intraperitoneal, 24 hours observation", "method": "(§2) Neurotoxicity in mice was determined using mice of strain BDF1. This was carried out by (1) determining the LD50 of each compound in mice and (2) observing the animals for acute neurotoxic symptoms such as convulsions. The drugs were either solubilized or suspended in normal saline and administered intraperitoneally to groups of 10 mice."}, "in vivo": {"experiment": "in vivo", "conditions": "mouse, in vivo, ip", "method": "as §2"}, "hypoxic tumor cells": {"system": "hypoxic tumor cells", "conditions": "cited from earlier work; for selectivity (tumor cells versus normal tissue cells): DNA incorporating drugs; for radiosensitizing activity (in words): in vitro and/or in vivo"}, "[3]": {"system": "Chinese hamster cells line V-79-753 B", "experiment": "Radiosensitization of hypoxic Chinese hamster cells (Cobalt-60 irradiation, enhancement ratio)", "assay_type": "cell-based", "conditions": "1395 rad Cobalt-60", "method": "as §1"}, "Redox potential": {"experiment": "Redox potential", "assay_type": "physicochemical"}, "[4]": {"system": "hypoxic cells (Chinese hamster cells line V-79-753 B)", "experiment": "Differential cytotoxicity of hypoxic cells", "assay_type": "cell-based", "method": "as §1\n[…] Drug concentrations between 10 μM were employed."}, "[5]": {"experiment": "Toxicity, general statements of the description"}, "humans": {"system": "humans", "conditions": "cited from earlier work"}, "mice": {"system": "mice", "conditions": "cited from earlier work"}, "mice of strain BDF1 [6]": {"system": "mice of strain BDF1", "conditions": "footnote *: P. W. Sheldon, et al, Br. J. Cancer, 35, 795, 800 (1977); 1440 min; cited from earlier work"}, "[7]": {"conditions": "read-out: In-vitro Cytotoxicity in cells: inhibition"}}, "note": "Where two headings read alike, the source gives them in different places."}
{"smiles": "O=[N+]([O-])c1nc2ccccc2n1CC[N+]1([O-])CCCCC1", "note": "[A, 1-(1'-oxido)piperidinoethyl-2-nitrobenzimidazole]", "values": [{"measurement": "MNTC at 2 h", "setting": "[1]", "value": "≥ 10", "unit": "mM"}, {"measurement": "Convulsions in mice at LD50 doses", "setting": "mice of strain BDF1 [2]", "value": "None"}, {"measurement": "LD50 at 24 h", "setting": "in vivo", "value": "~5000", "unit": "mg/kg"}]}
{"smiles": "O=[N+]([O-])c1nc2ccccc2n1CCN1CCCCC1", "note": "[B, 1-piperidinoethyl-2-nitrobenzimidazole]", "values": [{"measurement": "cytotoxicity at 2 h, 1000 µM", "setting": "[1]; [7]", "value": 50, "unit": "%"}, {"measurement": "Convulsions in mice at LD50 doses", "setting": "mice of strain BDF1 [2]", "value": "Yes"}, {"measurement": "LD50 in mice", "setting": "mice of strain BDF1 [2]", "value": "< 1", "unit": "g"}]}
{"smiles": "O=c1[nH]c(=O)n([C@H]2C[C@H](O)[C@@H](CO)O2)cc1Br", "note": "[BUdR, 5-Bromodeoxyuridine]", "values": [{"measurement": "selectivity (tumor cells versus normal tissue cells)", "setting": "hypoxic tumor cells", "value": "failed precisely because of their poor selectivity problem"}]}
{"smiles": "O=[N+]([O-])c1nccn1CC[N+]1([O-])CCCCC1", "note": "[C, 1-(1'-oxido)piperidinoethyl-2-nitroimidazole]", "values": [{"measurement": "MNTC at 2 h", "setting": "[1]", "value": "≥ 20", "unit": "mM"}, {"measurement": "Radiosensitization (enhancement ratio at 1mM in chinese hamster cells)", "setting": "[3]", "value": 2.2}, {"measurement": "Convulsions in mice at LD50 doses", "setting": "mice of strain BDF1 [2]", "value": "None"}, {"measurement": "LD50 at 24 h", "setting": "in vivo", "value": "> 5000", "unit": "mg/kg"}, {"measurement": "Redox Potential", "setting": "Redox potential", "value": -0.32, "unit": "V"}, {"measurement": "Differential cytotoxicity of hypoxic cells", "setting": "[4]; up to 4 hours", "value": "None"}]}
{"smiles": "O=[N+]([O-])c1nccn1CCN1CCCCC1", "note": "[D, 1-piperidinoethyl-2-nitroimidazole]", "values": [{"measurement": "cytotoxicity at 2 h, 1000 µM", "setting": "[1]; [7]", "value": 70, "unit": "%"}, {"measurement": "Radiosensitization (enhancement ratio at 1mM in chinese hamster cells)", "setting": "[3]", "value": "~2.1"}, {"measurement": "Convulsions in mice at LD50 doses", "setting": "mice of strain BDF1 [2]", "value": "yes"}, {"measurement": "LD50 at 24 h", "setting": "in vivo", "value": 800, "unit": "mg/kg"}]}
{"smiles": "C[N+]1(CCn2ccnc2[N+](=O)[O-])CCCCC1", "note": "[E, 1-(1'-methiodide)-piperidinoethyl-2-nitroimidazole]", "values": [{"measurement": "cytotoxicity at 2 h, 2000 µM", "setting": "[1]; at 2mM, read-out: In-vitro Cytotoxicity in cells: inhibition", "value": 30, "unit": "%"}, {"measurement": "toxicity (in words)", "setting": "[5]", "value": "more toxic than the parent non-quaternized piperidino compound itself"}, {"measurement": "Convulsions in mice at LD50 doses", "setting": "mice of strain BDF1 [2]", "value": "yes"}, {"measurement": "LD50 at 24 h", "setting": "in vivo", "value": 250, "unit": "mg/kg"}]}
{"smiles": "COCC(O)Cn1ccnc1[N+](=O)[O-]", "note": "(stereo not drawn) [F, Misonidazole]", "values": [{"measurement": "radiosensitizing activity (in words)", "setting": "hypoxic tumor cells", "value": "effective in vivo"}, {"measurement": "Redox Potential", "setting": "Redox potential", "value": -0.389, "unit": "V"}, {"measurement": "central nervous system (CNS) toxicity", "setting": "humans; use in humans", "value": "limiting factor for their use in humans"}, {"measurement": "Differential cytotoxicity of hypoxic cells", "setting": "[4]; exposure time not given", "value": "yes"}, {"measurement": "serious side effects when administered orally", "setting": "mice; oral, mice", "value": "peripheral neuropathy and convulsions in mice"}]}
{"smiles": "O=c1[nH]c(=O)n([C@H]2C[C@H](O)[C@@H](CO)O2)cc1F", "note": "[FUdR, 5-Fluorodeoxyuridine]", "values": [{"measurement": "selectivity (tumor cells versus normal tissue cells)", "setting": "hypoxic tumor cells", "value": "failed precisely because of their poor selectivity problem"}]}
{"smiles": "Cc1ncc([N+](=O)[O-])n1CCO", "note": "[G, Metronidazole]", "values": [{"measurement": "radiosensitizing activity (in words)", "setting": "hypoxic tumor cells; as worded, listed as Metronidazole", "value": "active both in vivo and in vitro"}, {"measurement": "radiosensitizing activity (in words)", "setting": "hypoxic tumor cells; as worded, listed as metronidazole", "value": "effective in vivo"}, {"measurement": "Radiosensitization (enhancement ratio at 1mM in chinese hamster cells)", "setting": "[3]", "value": 1.5}, {"measurement": "Redox Potential", "setting": "Redox potential", "value": -0.486, "unit": "V"}, {"measurement": "central nervous system (CNS) toxicity", "setting": "humans; in vivo", "value": "limiting factor for their use in humans"}, {"measurement": "LD50 in mice", "setting": "mice of strain BDF1 [6]", "value": 3500, "unit": "mg/kg"}, {"measurement": "Differential cytotoxicity of hypoxic cells", "setting": "[4]; exposure time not given", "value": "yes"}, {"measurement": "serious side effects when administered orally", "setting": "mice; mouse, in vivo, po", "value": "peripheral neuropathy and convulsions in mice"}]}
{"smiles": "CN(C)CCC(=O)c1ccc([N+](=O)[O-])cc1.Cl", "note": "[NDPP, p-nitro-3-dimethylamino propiophenone HCl]", "values": [{"measurement": "radiosensitizing activity (in words)", "setting": "hypoxic tumor cells", "value": "appeared promising in vitro"}]}
